Reference: paper PMC2779710 (Journal of medicinal chemistry, 2009)
Positions of bridges follow the written chain, without caps; N, C: chain ends. Non-standard residues stand in square brackets, D forms with d. Residues, ends and D or L forms follow the SMILES beside them. Phe(4-CH2NHiPr) = CC(C)NCc1ccc(C[C@H](N)C(=O)O)cc1

Columns and labels:
human sst1 receptor = human sst1 receptor (Homo sapiens, UniProt P30872); assay: Luciferase reporter gene assay in CCL39-sst1-Luci cells; conditions: for Luciferase Assay (agonist/antagonist property): CCL39-sst1-Luci cells, 0.1 nM to 1 μM, 5 h
Chain of human sst1 receptor (P30872 whole entry): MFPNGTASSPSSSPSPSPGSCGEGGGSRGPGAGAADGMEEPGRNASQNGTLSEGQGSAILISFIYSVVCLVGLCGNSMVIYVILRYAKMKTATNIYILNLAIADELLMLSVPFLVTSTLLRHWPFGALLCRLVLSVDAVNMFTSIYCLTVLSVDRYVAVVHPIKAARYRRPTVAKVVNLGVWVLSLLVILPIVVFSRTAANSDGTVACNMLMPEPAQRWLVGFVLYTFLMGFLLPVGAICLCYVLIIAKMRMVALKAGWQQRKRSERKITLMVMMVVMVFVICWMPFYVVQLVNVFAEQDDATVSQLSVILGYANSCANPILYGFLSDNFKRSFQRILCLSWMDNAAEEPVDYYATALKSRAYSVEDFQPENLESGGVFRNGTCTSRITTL

SRIF receptor = conditions: cited from earlier work

Compound	Luciferase Assay (agonist/antagonist property) (human sst1 receptor)	less potent than SRIF or 25 in luciferase reporter gene assay (human sst1 receptor; EC50 comparison)	binding affinity to any SRIF receptor (SRIF receptor)
CC(C)NCc1ccc(C[C@@H]2NC(=O)[C@@H](Cc3c[nH]c4ccccc34)NC(=O)[C@H](Cc3ccccc3)NC(=O)[C@H](Cc3ccccc3)NC(=O)[C@H](CCCCN)NC(=O)[C@@H](NC(=O)[C@@H](N)Cc3ccc(O)cc3)CSSC[C@@H](C(=O)O)NC(=O)[C@H](CO)NC(=O)[C@H]([C@@H](C)O)NC(=O)[C@H](Cc3ccccc3)NC(=O)[C@H]([C@@H](C)O)NC2=O)cc1 [Compound 33, reference compound] (H-YCKFF[dW][Phe(4-CH2NHiPr)]TFTSC-OH; disulfide 2-12 (inferred))	agonist	approximately 100 fold	
CC(C)NCc1ccc(C[C@@H]2NC(=O)[C@@H](N(C)C(=O)c3ccc4ccccc4c3)NC(=O)[C@H](Cc3ccccc3)NC(=O)[C@H](N)CSSC[C@@H](C(=O)N[C@@H](Cc3ccc4ccccc4c3)C(N)=O)NC(=O)[C@H](Cc3ccccc3)NC2=O)cc1 [Compound 29, des-AA^1,2,4-6,10,12,13-[DCys^3,DAgl(NMe,2naphthoyl)^8,IAmp^9]-SRIF-2Nal-NH2]	agonist		
CC(C)NCc1ccc(C[C@@H]2NC(=O)[C@@H](N(C)C(=O)c3ccc4ccccc4c3)NC(=O)[C@H](Cc3ccccc3)NC(=O)[C@@H](NC(=O)[C@H](N)Cc3ccc(O)cc3)CSSC[C@@H](C(=O)N[C@H](C(N)=O)[C@@H](C)O)NC(=O)[C@H](Cc3ccccc3)NC2=O)cc1 [Compound 25, des-AA^1,4-6,10,12,13-[DTyr^2,DAgl(NMe,2naphthoyl)^8,IAmp^9]-SRIF-Thr-NH2]	potent sst1 agonist		
CC(C)NCc1ccc(C[C@@H]2NC(=O)[C@@H](Cc3c[nH]c4ccccc34)NC(=O)[C@H](Cc3ccccc3)NC(=O)[C@H](Cc3ccccc3)NC(=O)[C@@H](N)CSSC[C@@H](C(=O)O)NC(=O)[C@H](Cc3ccccc3)NC(=O)[C@H]([C@@H](C)O)NC2=O)cc1 [Compound 9, des-AA^1,2,4,5,12,13-[DTrp^8, IAmp^9]-SRIF] (H-CFF[dW][Phe(4-CH2NHiPr)]TFC-OH; disulfide 1-8 (inferred))			no binding affinity
CC(C)NCc1ccc(C[C@@H]2NC(=O)[C@@H](N(C)C(=O)c3ccc4ccccc4c3)NC(=O)[C@H](Cc3ccccc3)NC(=O)[C@@H](N)CSSC[C@@H](C(=O)N[C@H](C(N)=O)[C@@H](C)O)NC(=O)[C@H](Cc3ccccc3)NC2=O)cc1 [Compound 23, des-AA^1,2,4-6,10,12,13-[DAgl(NMe,2naphthoyl)^8,IAmp^9]-SRIF-Thr-NH2]	agonist		
CC(C)NCc1ccc(C[C@@H]2NC(=O)[C@@H](N(C)C(=O)c3ccc4ccccc4c3)NC(=O)[C@H](Cc3ccccc3)NC(=O)[C@@H](N)CSSC[C@@H](C(N)=O)NC(=O)[C@H](Cc3ccc(O)cc3)NC2=O)cc1 [Compound 27, des-AA^1,2,4-6,10,12,13-[DAgl(NMe,2naphthoyl)^8,IAmp^9,Tyr^11]-SRIF-NH2]	agonist		
